Reference: US11130741B2 (Bioimics AB, priority 2016, dated 2021)
Converted amounts (≈) assume the structure as drawn. Where two headings read alike, the source gives them in different places.

How the values were obtained:
[1] = tested on: E. coli RNase P RNA, M1 RNA; test: Inhibition of bacterial RNase P activity, IC50 determination (cleavage of pATSerUG by M1 RNA); format: biochemical; conditions: NI = No inhibition
[2] = tested on: Enterococcus faecalis (ATCC29212); test: MIC, broth microdilution (CLSI), Enterococcus faecalis ATCC29212; format: cell-based; conditions: read-out: MIC E. faecalis ATCC 29212
[3] = tested on: Pseudomonas aeruginosa (ATCC27853); test: microbe, parasite or virus in culture; format: cell-based; conditions: read-out: MIC P. aeruginosa ATCC 27853
[4] = tested on: Staphylococcus aureus subsp. aureus (ATCC29213); test: MIC, broth microdilution (CLSI), Staphylococcus aureus subsp. aureus ATCC29213; format: cell-based
H. influenzae ATCC 49247 = test: MIC, H. influenzae ATCC 49247; format: cell-based; conditions: Haemophilus influenzae, ATCC49247
A. baumannii ATCC 17978 = test: MIC, A. baumannii ATCC 17978; format: cell-based; conditions: Acinetobacter baumannii, ATCC17978
[5] = tested on: P. aeruginosa NTUH-974 (MDR); test: MIC, P. aeruginosa NTUH-974 (MDR); format: cell-based
N. gonorrhoeae 612501 = test: MIC, N. gonorrhoeae 612501; format: cell-based; conditions: Neisseria gonorrhoeae
E. faecium ATCC 700221 = test: MIC, E. faecium ATCC 700221; format: cell-based; conditions: Enterococcus faecium, ATCC700221; read-out: MIC E. faecium ATCC 700221
E. coli JW5503 = test: MIC, E. coli JW5503; format: cell-based; conditions: Escherichia coli, JW5503, read-out: MIC E. coli JW5503
K. pneumoniae ATCC 43816 = test: MIC, K. pneumoniae ATCC 43816; format: cell-based; conditions: Klebsiella pneumoniae, ATCC43816
S. aureus ATCC 29213 = test: MIC, S. aureus ATCC 29213 + 50% HS; format: cell-based; conditions: Staphylococcus aureus, ATCC29213
[6] = tested on: S. aureus MRSA ATCC 33591; test: MIC, S. aureus MRSA ATCC 33591; format: cell-based; conditions: Staphylococcus aureus; read-out: MIC S. aureus MRSA ATCC 33591
S. pneumoniae ATCC 49619 = test: MIC, S. pneumoniae ATCC 49619; format: cell-based; conditions: Streptococcus pneumoniae, ATCC49619
[7] = tested on: Escherichia coli (ATCC25922); test: MIC, broth microdilution (CLSI), Escherichia coli ATCC25922
Procedure: Initial minimal inhibitory concentration (MIC) tests were made on two bacterial strains: • Escherichia coli (ATCC25922) • Staphylococcus aureus (ATCC25923).
Minimal Inhibitory Concentration (MIC)
MIC values were determined using the standard broth microdilution procedure based on the guidelines by the Clinical and Laboratory Standards Institute (CLSI). Briefly, the compounds were dissolved in DMSO to 10 mM. They were diluted in cation-adjusted Mueller-Hinton broth (CAMHB) to four times the highest concentration tested. A serial 2-fold dilution in CAMHB was done in microdilution plates. The inoculum of bacterial strain to be tested was prepared by making a suspension of colonies from an 18 to 24 hours old plate in CAMHB. The inoculum was diluted so that, after inoculation, each well contained approximately 5×10^5 CFU/mL. To a volume of 50 μl compound in CAMHB an equal volume of inoculum was added. The tray was sealed in a plastic bag and incubated at 35° C. for 16 to 20 hours. To aid in the detection of growth the dye resazurin was added to a final concentration 0.001% and incubated at room temperature for 1 h. Reduction of resazurin, and therefore bacterial growth, was seen as a change from blue to pink.

[8] = tested on: Staphylococcus aureus (ATCC25923); test: MIC, broth microdilution (CLSI), Staphylococcus aureus ATCC25923; conditions: ATCC25923, read-out: S. aureus ("Clinical") MIC
H. pylori ATCC 43504 = test: MIC, H. pylori ATCC 43504; format: cell-based; conditions: Helicobacter pylori, ATCC43504
M. phlei ATCC 11758 = test: MIC, M. phlei ATCC 11758; format: cell-based; conditions: Mycolicibacterium phlei, ATCC11758
[9] = tested on: S. aureus USA300 MRSA BAA 1717; test: MIC, S. aureus USA300 MRSA BAA 1717; format: cell-based; conditions: Staphylococcus aureus
M. fortuitum ATCC 110 = test: MIC, M. fortuitum ATCC 110; format: cell-based; conditions: Mycolicibacterium fortuitum, ATCC110
[10] = ATCC29213, Table 15, read-out: S. aureus ("wound") (MIC)
[11] = ATCC29213, Table 16, read-out: MIC S. aureus ATCC 29213
[12] = Pseudomonas aeruginosa; read-out: MIC P. aeruginosa NTUH-974 (MDR)
[13] = ATCC25922, read-out: E. coli MIC, Table 15, NI = No inhibition
[14] = ATCC25922, read-out: MIC E. coli ATCC 25922, Table 16
[15] = Pseudomonas aeruginosa, read-out: MIC P. aeruginosa NTUH-974 (MDR)

| SMILES | IC50 [1] | MIC [2] | MIC [3] | MIC [4, 10] | MIC [4, 11] | MIC (H. influenzae ATCC 49247) | MIC (A. baumannii ATCC 17978) | MIC [5, 12] | MIC (N. gonorrhoeae 612501) | MIC (E. faecium ATCC 700221) | MIC (E. coli JW5503) | MIC (K. pneumoniae ATCC 43816) | MIC (S. aureus ATCC 29213) | MIC [6] | MIC (S. pneumoniae ATCC 49619) | MIC [7, 13] | MIC [7, 14] | MIC [8] | MIC (H. pylori ATCC 43504) | MIC (M. phlei ATCC 11758) | other results |
| --- | --- | --- | --- | --- | --- | --- | --- | --- | --- | --- | --- | --- | --- | --- | --- | --- | --- | --- | --- | --- | --- |
| NCCN1CCC(Nc2cc(C(F)(F)F)cc3c2Nc2ccccc2S3)CC1 [compound 140, N-(1-(2-Aminoethyl)piperidin-4-yl)-3-(trifluoromethyl)-10H-phenothiazin-1-amine] | 8 µM | 4 mg/L (≈ 9.79 µM) | 64 mg/L (≈ 157 µM) | 8 mg/L (≈ 19.6 µM) | 4 mg/L (≈ 9.79 µM) | 8 mg/L (≈ 19.6 µM) | 8 mg/L (≈ 19.6 µM) | 32 mg/L (≈ 78.3 µM) | 2 mg/L (≈ 4.9 µM) | 4 mg/L (≈ 9.79 µM) | 8 mg/L (≈ 19.6 µM) | 8 mg/L (≈ 19.6 µM) | 128 mg/L | 4 mg/L (≈ 9.79 µM) | 32 mg/L (≈ 78.3 µM) | 7 mg/L (≈ 17.1 µM) | 32 mg/L (≈ 78.3 µM) | 3 mg/L (≈ 7.34 µM) |  |  |  |
| NCCCN1c2ccccc2Sc2cc(-c3cc4ccccc4[nH]3)ccc21 [compound 150, 3-(3-(1H-Indol-2-yl)-10H-phenothiazin-10-yl)propan-1-amine] | 14 µM | 2 mg/L (≈ 5.38 µM) | > 128 mg/L |  | 2 mg/L (≈ 5.38 µM) | 8 mg/L (≈ 21.5 µM) | 16 mg/L (≈ 43.1 µM) |  | 2 mg/L (≈ 5.38 µM) | 2 mg/L (≈ 5.38 µM) | 4 mg/L (≈ 10.8 µM) | 16 mg/L (≈ 43.1 µM) | 64 mg/L | 2 mg/L (≈ 5.38 µM) | 8 mg/L (≈ 21.5 µM) | 12 mg/L (≈ 32.3 µM) | 16 mg/L (≈ 43.1 µM) | 1 mg/L (≈ 2.69 µM) |  |  | MIC [5, 15]: > 128 mg/L |
| CNCCCN1c2ccccc2Sc2cc(-c3cc4ccccc4[nH]3)ccc21 [compound 186, 3-(3-(1H-indol-2-yl)-10H-phenothiazin-10-yl)-N-methylpropan-1-amine] | 30 µM | 4 mg/L (≈ 10.4 µM) | > 128 mg/L |  | 4 mg/L (≈ 10.4 µM) | 16 mg/L (≈ 41.5 µM) | 16 mg/L (≈ 41.5 µM) |  | 4 mg/L (≈ 10.4 µM) | 4 mg/L (≈ 10.4 µM) | 4 mg/L (≈ 10.4 µM) | 128 mg/L (≈ 332 µM) | 64 mg/L | 8 mg/L (≈ 20.8 µM) | 32 mg/L (≈ 83 µM) | 99 mg/L (≈ 257 µM) | 16 mg/L (≈ 41.5 µM) | 2 mg/L (≈ 5.19 µM) |  |  | MIC [5, 15]: > 128 mg/L |
| CC(C)NCCCN1c2ccccc2Sc2cc(-c3cc4ccccc4[nH]3)ccc21 [compound 197, 3-(3-(1H-indol-2-yl)-10H-phenothiazin-10-yl)-N-isopropylpropan-1-amine] | 25 µM | 2 mg/L (≈ 4.84 µM) | > 128 mg/L | 4 mg/L (≈ 9.67 µM) | 2 mg/L (≈ 4.84 µM) | 16 mg/L (≈ 38.7 µM) | 64 mg/L (≈ 155 µM) |  | 1 mg/L (≈ 2.42 µM) | 2 mg/L (≈ 4.84 µM) | 4 mg/L (≈ 9.67 µM) | > 128 mg/L | 128 mg/L | 16 mg/L (≈ 38.7 µM) | 4 mg/L (≈ 9.67 µM) |  | 64 mg/L (≈ 155 µM) | 6 mg/L (≈ 14.5 µM) |  |  | MIC [5, 15]: > 128 mg/L |
| NCCCN1c2ccc(-c3cc4ccccc4[nH]3)cc2Sc2cc(C(F)(F)F)ccc21 [compound 245, 3-(3-(1H-indol-2-yl)-7-(trifluoromethyl)-10H-phenothiazin-10-yl)propan-1-amine] | 1 µM | 2 mg/L (≈ 4.55 µM) | > 128 mg/L | 1 mg/L (≈ 2.28 µM) | 2 mg/L (≈ 4.55 µM) | 4 mg/L (≈ 9.1 µM) | 16 mg/L (≈ 36.4 µM) | 64 mg/L (≈ 146 µM) | 2 mg/L (≈ 4.55 µM) | 1 mg/L (≈ 2.28 µM) | 8 mg/L (≈ 18.2 µM) | 32 mg/L (≈ 72.8 µM) | 128 mg/L | 2 mg/L (≈ 4.55 µM) | 16 mg/L (≈ 36.4 µM) | 7 mg/L (≈ 15.9 µM) | 8 mg/L (≈ 18.2 µM) | 2 mg/L (≈ 4.55 µM) |  |  |  |
| CC1CC(C)CN(c2ccc3c(c2)Sc2cc(C(F)(F)F)cc(NC4CCN(CCN)CC4)c2N3)C1.Cl.Cl.Cl (stereo not drawn) [compound 274, N-(1-(2-aminoethyl)piperidin-4-yl)-7-(3,5-dimethyl-piperidin-1-yl)-3-(trifluoromethyl)-10H-phenothiazin-1-amine hydrochloride] | 24 µM | 2 mg/L | 16 mg/L | 1 mg/L | 1 mg/L | 1 mg/L | 4 mg/L | 16 mg/L | 1 mg/L | 1 mg/L | 8 mg/L | 4 mg/L | 16 mg/L | 1 mg/L | 4 mg/L | 8 mg/L | 4 mg/L |  | 16 mg/L | 4 mg/L | MIC [9]: 1 mg/L; MIC (M. fortuitum ATCC 110): 4 mg/L |
| Cl.Cl.NCCN1CCC(Nc2cc(C(F)(F)F)cc3c2Nc2ccc(N4CCCC4)cc2S3)CC1 [compound 284, N-(1-(2-aminoethyl)piperidin-4-yl)-7-(pyrrolidin-1-yl)-3-(trifluoromethyl)-10H-phenothiazin-1-amine hydrochloride] | 0.89 µM | 2 mg/L | 32 mg/L | 2 mg/L | 2 mg/L | 8 mg/L | 8 mg/L | 32 mg/L | 2 mg/L | 2 mg/L | 4 mg/L | 4 mg/L | 32 mg/L | 2 mg/L | 8 mg/L | 8 mg/L | 4 mg/L |  | 32 mg/L | 4 mg/L | MIC [9]: 2 mg/L; MIC (M. fortuitum ATCC 110): 8 mg/L |
| Cl.NC1CCCC(CNc2cc(C(F)(F)F)cc3c2Nc2ccc(N4CCCC4)cc2S3)C1 (stereo not drawn) [compound 300, N-((3-aminocyclohexyl)methyl)-7-(pyrrolidin-1-yl)-3-(trifluoromethyl)-10H-phenothiazin-1-amine] | 1.9 µM | 1 mg/L | > 32 mg/L | 1 mg/L | 1 mg/L | 2 mg/L | 8 mg/L | > 32 mg/L | 1 mg/L | 1 mg/L | 2 mg/L | 8 mg/L | 16 mg/L | 1 mg/L | 4 mg/L | 16 mg/L | 4 mg/L |  | 16 mg/L | 4 mg/L | MIC [9]: 1 mg/L; MIC (M. fortuitum ATCC 110): 2 mg/L |
| CC1CCCN(c2ccc3c(c2)Sc2cc(C(F)(F)F)cc(NC4CCN(CCN)CC4)c2N3)C1.Cl.Cl (stereo not drawn) [compound 301, N-(1-(2-aminoethyl)piperidin-4-yl)-7-(3-methyl-piperidin-1-yl)-3-(trifluoromethyl)-10H-phenothiazin-1-amine hydrochloride] | 27 µM | 2 mg/L | 16 mg/L | 2 mg/L | 4 mg/L | 2 mg/L | 4 mg/L | 16 mg/L | 1 mg/L | 2 mg/L | 2 mg/L | 4 mg/L | 16 mg/L | 2 mg/L | 4 mg/L | 4 mg/L | 4 mg/L |  | 8 mg/L | 8 mg/L | MIC [9]: 2 mg/L; MIC (M. fortuitum ATCC 110): 4 mg/L |
| Cl.Cl.NCCNCCC(=O)Nc1cc(C(F)(F)F)cc2c1Nc1ccc(N3CCCC3)cc1S2 [compound 302, 3-((2-aminoethyl)amino)-N-(7-(pyrrolidin-1-yl)-3-(trifluoromethyl)-10H-phenothiazin-1-yl)propanamide hydrochloride] | 3.6 µM | 8 mg/L | 32 mg/L | 32 mg/L | 8 mg/L | 16 mg/L | 32 mg/L | 32 mg/L | 8 mg/L | 4 mg/L | 16 mg/L | 16 mg/L | 64 mg/L | 8 mg/L | 64 mg/L | 128 mg/L | 16 mg/L |  | 32 mg/L | 16 mg/L | MIC [9]: 8 mg/L; MIC (M. fortuitum ATCC 110): 8 mg/L |
